Results taken from patent publication US9242960B2, “P38MAP kinase inhibitors” (Respivert Ltd., priority 2009, dated 2016).

Columns and labels:
BEAS2B cells [1] = assay: Rhinovirus-induced IL-8 release in BEAS2B cells; assay type: cell-based, human
BEAS2B cells [2] = assay: Rhinovirus-induced ICAM-1 expression in BEAS2B cells; assay type: cell-based, human
[3] = test system: differentiated U937 cells; assay: LPS-induced TNFα release in differentiated U937 cells; assay type: cell-based; conditions: Homo sapiens, U-937, read-out: IC50 Values LPS-induced TNFα release d-U937 cells
Description: (§1) U937 cells, human monocytic cell line, were differentiated to macrophage-type cells by incubation with phorbol myristate acetate (PMA; 100 ng/ml) for 48 to 72 hr. Where appropriate, cells were pre-incubated with final concentrations of compound for 2 hr. Cells were then stimulated with 0.1 μg/ml of LPS (from E. Coli: O111:B4, Sigma) for 4 hr, and the supernatant collected for determination of TNFα concentration by sandwich ELISA (Duo-set, R&D systems). […] THP-1, human monocytic cell line, was also used for this assay. THP-1 cells were stimulated with 3 μg/ml of LPS (from E. Coli: O111:B4, Sigma) for 4 hr, and the supernatant collected for determination of TNFα concentration.

sputum macrophages = assay: Sputum macrophage assay (LPS-induced IL-8 release); assay type: cell-based, human
BEAS2B cells [4] = assay: Poly I:C-induced ICAM-1 induction in BEAS2B cells; assay type: cell-based, human; conditions: at 10 ug/ml
Description: Poly I:C (1 ug/ml) (Invivogen Ltd., San Diego, Calif.) was transfected into BEAS2B cells (human bronchial epithelial cells, ATCC) with Oligofectamine (Invitrogen, Carlsbad, Calif.). Cells were pre-incubated with final concentrations of compound for 2 hrs. The level of ICAM1 expression on the cell surface was determined by cell-based ELISA. Briefly, at 18 hrs after poly I:C transfection, cells were fixed with 4% formaldehyde in PBS. After quenching endogenous peroxidase by adding 0.1% sodium azide and 1% hydrogen peroxide, cells were washed with wash-buffer (0.1% Tween in PBS: PBS-Tween). After blocking the wells with 5% milk in PBS-Tween for 1 hr, the cells were incubated with anti-human ICAM-1 antibody (Cell Signaling Technology, Danvers, Mass.) in 1% BSA PBS overnight at 4° C. Cells were washed with PBS-Tween and incubated with the secondary antibody (HRP-conjugated anti-rabbit IgG, Dako Ltd., Glostrup, Denmark).

[5] = test system: differentiated U937 cells; assay: LPS-induced IL-8 release in differentiated U937 cells; assay type: cell-based, human
Description: U937 cells, human monocytic cell line, were differentiated to macrophage-type cells by incubation with phorbol myristate acetate (PMA; 100 ng/ml) for 48 to 72 hours. Cells were pre-incubated with final concentrations of compound for 2 hrs. Cells were then stimulated with 0.1 μg/ml of LPS (from E. Coli: O111:B4, Sigma) for 4 hrs, and the supernatant collected for determination of the IL-8 concentration by sandwich ELISA (Duo-set, R&D systems).

THP-1 cells = assay: LPS-induced TNFα release in THP-1 cells; assay type: cell-based; conditions: Homo sapiens, read-out: IC50 Values LPS-induced TNFα release THP1 cells
Description: as §1

[6] = test system: Human rhinovirus RV16 (HRV); assay: Rhinovirus-titre assay in MRC5 cells; assay type: cell-based; conditions: concentration range up to 1.9 μM
Description: All titrations were performed by infecting confluent Hela cell monolayers with serially diluted supernantant (10^−1 to 10^−5) and assessing cytopathetic effect by MTT assay 4 days after infection. The amount of virus required to infect 50% of Hela cells was calculated in each treatment as TCID50 U/mL. Compounds were added 24 and 2 hr before HRV infection and 1 hr after infection when non-infected HRV was washed out.

[7] = test system: bronchoconstrictor response to ovalbumin challenge (sGaw); assay: Ovalbumin challenge/parainfluenza infection model; assay type: in vivo, guinea-pigs; conditions: 1.5 mg per day nebulised, sensitized animals treated with PIV3 medium (initial studies)
[8] = test system: neutrophil and macrophage accumulation into airways; assay: Cigarette smoke model; assay type: in vivo, A/J mice; parameters: dose or concentration left out as unconfirmed; conditions: (35 μl, bid, in)
Description: A/J mice (males, 5 weeks old) were exposed to cigarette smoke (4% cigarette smoke, diluted with compressed air) for 30 min/day for 11 days using a Tobacco Smoke Inhalation Experiment System for small animals (Model SIS-CS; Sibata Scientific Technology, Tokyo, Japan). Test substances were given intra-nasally (35 μl of solution in 50% DMSO/PBS) and therapeutically twice daily for 3 days after the final cigarette smoke exposure. Twelve hours after the last dosing, animals were anesthetized, the trachea cannulated and bronchoalveolar lavage fluid (BALF) was collected. The numbers of alveolar macrophages and neutrophils were determined by FACS analysis (EPICS® ALTRA II, Beckman Coulter, Inc., Fullerton, Calif., USA) using anti-mouse MOMA2 antibody (macrophage) or anti-mouse 7/4 antibody (neutrophil).

Cc1ccc(-n2nc(C(C)(C)C)cc2NC(=O)Nc2ccc(OCCN3CCOCC3)c3ccccc23)cc1 [BIRB796]
IC50 Values BEAS2B cells Rhinovirus-induced IL-8 release (BEAS2B cells [1]): NSE @ 1.9 μM | IC50 Values BEAS2B cells Rhinovirus-induced ICAM expression (BEAS2B cells [2]): NSE @ 1.9 μM | IC50 [3]: 20 nM | IC50 Values Sputum macrophages LPS-induced IL-8 release (sputum macrophages): NSE @ 19 μM | effect on poly I:C induced ICAM1 expression in BEAS2B cells (BEAS2B cells [4]): no effect | maximum inhibition of LPS-induced IL-8 release in differentiated U937 cells [5]: 31% | IC50 (THP-1 cells): 12 nM | effect on viral replication [6]: without effect

CCC(=O)O[C@]1(C(=O)SCF)[C@H](C)C[C@H]2[C@@H]3C[C@H](F)C4=CC(=O)C=C[C@]4(C)[C@@]3(F)[C@@H](O)C[C@@]21C [fluticasone propionate]
ovalbumin-mediated lung function changes [7]: inhibited | macrophage accumulation into airways [8]: did not inhibit | neutrophil accumulation into airways [8]: did not inhibit
